CC[C@H](C)[C@H]1O[C@]2(C=C[C@@H]1C)C[C@@H]1C[C@@H](C/C=C(\C)[C@@H](O[C@H]3C[C@H](OC)[C@@H](O[C@H]4C[C@H](OC)[C@@H](O)[C@H](C)O4)[C@H](C)O3)[C@@H](C)/C=C/C=C3\CO[C@@H]4[C@H](O)C(C)=C[C@@H](C(=O)O1)[C@]34O)O2
solubility (mole fraction)
Details | 283.15 K | 288.15 K | 293.15 K | 298.15 K | 303.15 K | 308.15 K | 313.15 K
in acetone | 0.00916 | 0.0104 | 0.0119 | 0.0134 | 0.0151 | 0.0175 | 0.0194
in isopropanol | 0.00481 | 0.00589 | 0.0071 | 0.00804 | 0.0096 | 0.0113 | 0.0137

Source: BigSolDB 2.1
